Data as given in article PMC3382171 (PLoS ONE, 2012).

Columns and labels:
Test in all cases: biochemical
Settings in all cases: read-out: Upstate KSS % inhibition at 1uM
[1] = molecular target: T1, GSK3alpha (Homo sapiens, UniProt P49840)
T1 construct: gene GSK3A
Experimental: (§1) In these selectivity assays the concentration of ATP was set to the Km value of ATP for each kinase tested to allow for a relative potency comparison between the various kinases. The compounds were tested at 1 µM final concentration. […] (A) Kinase selectivity screen (KSS) performed at Upstate Biotechnology. […] (B) KSS performed at University of Dundee (Division of Signal Transduction Therapy). […] (PDF) Click here for additional data file.

[2] = molecular target: T2, JNK2alpha2 (Homo sapiens, UniProt P45984)
T2 construct: gene MAPK9; isoform alpha2
Experimental: as §1

[3] = molecular target: T3, LKB1 (Homo sapiens, UniProt Q15831)
T3 construct: gene STK11
Experimental: as §1

[4] = molecular target: T4, Arg (Homo sapiens, UniProt P42684)
T4 construct: gene ABL2
Experimental: as §1

[5] = molecular target: ALK (Homo sapiens, UniProt Q9UM73)
Experimental: as §1

[6] = molecular target: PLK3 (Homo sapiens, UniProt Q9H4B4)
Experimental: as §1

[7] = molecular target: T5, Rsk1 (Homo sapiens, UniProt Q15418)
T5 construct: gene RPS6KA1
T5 sequence (Q15418 whole entry): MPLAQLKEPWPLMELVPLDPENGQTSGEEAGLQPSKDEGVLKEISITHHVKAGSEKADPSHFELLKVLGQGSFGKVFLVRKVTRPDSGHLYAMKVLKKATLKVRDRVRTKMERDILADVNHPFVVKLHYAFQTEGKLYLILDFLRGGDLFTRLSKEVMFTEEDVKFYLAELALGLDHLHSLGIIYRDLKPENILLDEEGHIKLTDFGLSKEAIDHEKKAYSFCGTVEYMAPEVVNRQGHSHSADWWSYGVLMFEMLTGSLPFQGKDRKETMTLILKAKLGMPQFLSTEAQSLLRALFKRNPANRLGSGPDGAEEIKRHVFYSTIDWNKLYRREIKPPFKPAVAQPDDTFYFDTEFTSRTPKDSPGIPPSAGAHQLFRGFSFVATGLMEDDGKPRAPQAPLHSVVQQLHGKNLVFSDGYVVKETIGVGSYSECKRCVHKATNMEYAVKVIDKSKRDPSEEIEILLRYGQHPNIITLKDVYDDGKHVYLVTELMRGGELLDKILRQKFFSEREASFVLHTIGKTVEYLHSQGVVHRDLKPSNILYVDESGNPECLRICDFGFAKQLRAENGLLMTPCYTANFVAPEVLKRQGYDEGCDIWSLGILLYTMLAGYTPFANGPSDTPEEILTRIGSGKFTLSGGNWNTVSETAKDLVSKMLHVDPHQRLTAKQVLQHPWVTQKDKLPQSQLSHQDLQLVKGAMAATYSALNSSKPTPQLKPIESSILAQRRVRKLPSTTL
Experimental: as §1

[8] = molecular target: T6, PKCbeta (Homo sapiens, UniProt P05771)
T6 construct: gene PRKCB
T6 sequence (P05771 whole entry): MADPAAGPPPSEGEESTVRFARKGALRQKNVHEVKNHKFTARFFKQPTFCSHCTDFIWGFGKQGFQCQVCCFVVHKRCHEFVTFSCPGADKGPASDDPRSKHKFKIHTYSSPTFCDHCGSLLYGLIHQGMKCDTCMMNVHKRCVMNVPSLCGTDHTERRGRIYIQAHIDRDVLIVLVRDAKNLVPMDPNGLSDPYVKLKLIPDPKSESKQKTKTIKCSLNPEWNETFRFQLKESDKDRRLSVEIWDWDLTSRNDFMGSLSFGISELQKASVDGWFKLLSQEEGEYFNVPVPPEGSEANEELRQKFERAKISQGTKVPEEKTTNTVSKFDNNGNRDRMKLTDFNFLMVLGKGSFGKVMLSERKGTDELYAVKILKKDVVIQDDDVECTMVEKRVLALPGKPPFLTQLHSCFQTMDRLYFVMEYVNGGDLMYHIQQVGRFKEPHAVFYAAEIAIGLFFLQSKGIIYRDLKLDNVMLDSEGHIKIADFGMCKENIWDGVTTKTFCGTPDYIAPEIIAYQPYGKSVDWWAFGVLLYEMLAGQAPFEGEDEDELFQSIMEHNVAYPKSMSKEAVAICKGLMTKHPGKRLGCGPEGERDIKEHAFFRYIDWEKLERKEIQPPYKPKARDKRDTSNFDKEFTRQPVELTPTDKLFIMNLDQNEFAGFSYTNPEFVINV
Experimental: as §1

[9] = molecular target: T7, SAPK2b (Homo sapiens, UniProt Q15759)
T7 construct: gene MAPK11
Experimental: as §1

[10] = molecular target: T8, Rsk3 (Homo sapiens, UniProt Q15349)
T8 construct: gene RPS6KA2
Experimental: as §1

[11] = molecular target: T9, mouse MKK4 (Mus musculus, UniProt P47809)
T9 construct: gene Map2k4
Experimental: as §1

[12] = molecular target: T10, PKD2 (Homo sapiens, UniProt Q9BZL6)
T10 construct: gene PRKD2
Experimental: as §1

[13] = molecular target: T11, ROCK-11 (Homo sapiens, UniProt O75116)
T11 construct: gene ROCK2
Experimental: as §1

[14] = molecular target: T12, SAPK3 (Homo sapiens, UniProt P53778)
T12 construct: gene MAPK12
Experimental: as §1

[15] = molecular target: T13, MRCKalpha (Homo sapiens, UniProt Q5VT25)
T13 construct: gene CDC42BPA
Experimental: as §1

[16] = molecular target: PAK2 (Homo sapiens, UniProt Q13177)
Experimental: as §1

[17] = molecular target: FGFR3 (Homo sapiens, UniProt P22607)
Experimental: as §1

[18] = molecular target: T14, TrkB (Homo sapiens, UniProt Q16620)
T14 construct: gene NTRK2
Experimental: as §1

[19] = molecular target: SRPK2 (Homo sapiens, UniProt P78362)
Experimental: as §1

[20] = molecular target: T15, ZIPK (Homo sapiens, UniProt O43293)
T15 construct: gene DAPK3
Experimental: as §1

[21] = molecular target: T16, PKCmu (Homo sapiens, UniProt Q15139)
T16 construct: gene PRKD1
Experimental: as §1

[22] = molecular target: PAK4 (Homo sapiens, UniProt O96013)
Sequence of PAK4 (O96013 whole entry): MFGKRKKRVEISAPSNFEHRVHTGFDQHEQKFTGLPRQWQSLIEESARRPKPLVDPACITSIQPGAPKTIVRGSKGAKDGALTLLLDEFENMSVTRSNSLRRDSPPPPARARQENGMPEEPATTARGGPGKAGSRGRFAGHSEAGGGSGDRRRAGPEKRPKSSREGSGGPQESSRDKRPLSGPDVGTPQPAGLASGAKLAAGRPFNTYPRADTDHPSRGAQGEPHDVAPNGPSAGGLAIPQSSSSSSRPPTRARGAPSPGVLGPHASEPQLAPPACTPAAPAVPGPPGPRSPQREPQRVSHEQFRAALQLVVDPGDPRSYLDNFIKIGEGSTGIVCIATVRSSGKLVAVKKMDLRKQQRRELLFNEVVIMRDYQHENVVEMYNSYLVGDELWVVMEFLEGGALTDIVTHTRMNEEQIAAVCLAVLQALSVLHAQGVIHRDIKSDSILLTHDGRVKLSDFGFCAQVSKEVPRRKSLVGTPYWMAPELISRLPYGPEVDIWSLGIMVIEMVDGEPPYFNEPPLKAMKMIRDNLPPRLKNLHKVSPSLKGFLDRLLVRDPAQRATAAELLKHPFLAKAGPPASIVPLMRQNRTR
Experimental: as §1

[23] = molecular target: RET (Homo sapiens, UniProt P07949)
Sequence of RET (P07949 whole entry): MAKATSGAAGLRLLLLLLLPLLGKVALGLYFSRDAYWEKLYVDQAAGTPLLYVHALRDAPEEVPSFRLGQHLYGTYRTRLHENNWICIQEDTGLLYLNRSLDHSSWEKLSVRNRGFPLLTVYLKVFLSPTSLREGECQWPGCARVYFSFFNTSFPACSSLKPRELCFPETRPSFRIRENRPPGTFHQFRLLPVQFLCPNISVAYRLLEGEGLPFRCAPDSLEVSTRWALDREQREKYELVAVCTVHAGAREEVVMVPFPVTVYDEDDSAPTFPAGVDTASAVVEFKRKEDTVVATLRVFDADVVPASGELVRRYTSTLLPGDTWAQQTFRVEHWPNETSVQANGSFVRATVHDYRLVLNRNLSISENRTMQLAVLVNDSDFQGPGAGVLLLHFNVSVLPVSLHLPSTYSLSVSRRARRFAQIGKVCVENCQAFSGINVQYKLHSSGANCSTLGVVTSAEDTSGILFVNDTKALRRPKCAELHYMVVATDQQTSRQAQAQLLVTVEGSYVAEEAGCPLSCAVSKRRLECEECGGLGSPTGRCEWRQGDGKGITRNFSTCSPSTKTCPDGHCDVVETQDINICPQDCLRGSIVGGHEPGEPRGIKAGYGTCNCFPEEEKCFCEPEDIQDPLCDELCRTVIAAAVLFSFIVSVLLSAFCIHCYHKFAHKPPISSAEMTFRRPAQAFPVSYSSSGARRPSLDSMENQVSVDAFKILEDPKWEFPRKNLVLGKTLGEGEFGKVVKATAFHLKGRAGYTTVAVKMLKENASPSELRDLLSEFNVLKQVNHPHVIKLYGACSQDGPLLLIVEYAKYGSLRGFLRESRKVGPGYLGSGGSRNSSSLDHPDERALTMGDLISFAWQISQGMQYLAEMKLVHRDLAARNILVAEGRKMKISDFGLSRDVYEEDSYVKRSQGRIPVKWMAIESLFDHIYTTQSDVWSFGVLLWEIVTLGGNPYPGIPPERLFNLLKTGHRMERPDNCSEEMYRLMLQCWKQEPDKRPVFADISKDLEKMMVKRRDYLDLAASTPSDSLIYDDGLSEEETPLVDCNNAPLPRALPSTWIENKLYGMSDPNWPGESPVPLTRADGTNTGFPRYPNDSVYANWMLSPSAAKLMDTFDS
Experimental: as §1

[24] = molecular target: T17, IKKalpha (Homo sapiens, UniProt O15111)
T17 construct: gene CHUK
T17 sequence (O15111 whole entry): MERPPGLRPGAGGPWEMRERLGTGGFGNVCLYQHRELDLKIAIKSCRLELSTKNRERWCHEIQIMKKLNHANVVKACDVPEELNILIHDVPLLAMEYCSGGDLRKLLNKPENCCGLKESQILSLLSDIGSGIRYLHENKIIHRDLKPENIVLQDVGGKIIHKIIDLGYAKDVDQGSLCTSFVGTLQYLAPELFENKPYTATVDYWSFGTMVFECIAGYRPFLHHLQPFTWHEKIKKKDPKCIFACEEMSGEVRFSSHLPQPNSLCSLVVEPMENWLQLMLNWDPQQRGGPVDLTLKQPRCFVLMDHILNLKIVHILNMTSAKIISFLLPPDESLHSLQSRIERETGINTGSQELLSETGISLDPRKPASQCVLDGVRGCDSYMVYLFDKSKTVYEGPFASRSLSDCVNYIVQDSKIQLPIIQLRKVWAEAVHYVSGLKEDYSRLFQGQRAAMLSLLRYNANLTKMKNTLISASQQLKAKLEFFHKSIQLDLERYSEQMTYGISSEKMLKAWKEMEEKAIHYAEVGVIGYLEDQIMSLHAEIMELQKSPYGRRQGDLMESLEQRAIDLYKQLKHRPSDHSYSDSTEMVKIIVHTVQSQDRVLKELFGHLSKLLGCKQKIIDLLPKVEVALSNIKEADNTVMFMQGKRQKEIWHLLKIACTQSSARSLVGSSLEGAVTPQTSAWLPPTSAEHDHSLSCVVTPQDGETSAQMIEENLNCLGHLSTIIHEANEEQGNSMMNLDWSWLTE
Experimental: as §1

[25] = molecular target: T18, Snk (Homo sapiens, UniProt Q9NYY3)
T18 construct: gene PLK2
Experimental: as §1

[26] = molecular target: T19, MNK2 (Homo sapiens, UniProt Q9HBH9)
T19 construct: gene MKNK2
Experimental: as §1

[27] = molecular target: T20, PRAK (Homo sapiens, UniProt Q8IW41)
T20 construct: gene MAPKAPK5
Experimental: as §1

[28] = molecular target: T21, PKCiota (Homo sapiens, UniProt P41743)
T21 construct: gene PRKCI
Experimental: as §1

[29] = molecular target: PASK (Homo sapiens, UniProt Q96RG2)
Experimental: as §1

[30] = molecular target: EPHB4 (Homo sapiens, UniProt P54760)
Experimental: as §1

[31] = molecular target: LCK (Homo sapiens, UniProt P06239)
Experimental: as §1

[32] = molecular target: T22, Tie2 (Homo sapiens, UniProt Q02763)
T22 construct: gene TEK
T22 sequence (Q02763 whole entry): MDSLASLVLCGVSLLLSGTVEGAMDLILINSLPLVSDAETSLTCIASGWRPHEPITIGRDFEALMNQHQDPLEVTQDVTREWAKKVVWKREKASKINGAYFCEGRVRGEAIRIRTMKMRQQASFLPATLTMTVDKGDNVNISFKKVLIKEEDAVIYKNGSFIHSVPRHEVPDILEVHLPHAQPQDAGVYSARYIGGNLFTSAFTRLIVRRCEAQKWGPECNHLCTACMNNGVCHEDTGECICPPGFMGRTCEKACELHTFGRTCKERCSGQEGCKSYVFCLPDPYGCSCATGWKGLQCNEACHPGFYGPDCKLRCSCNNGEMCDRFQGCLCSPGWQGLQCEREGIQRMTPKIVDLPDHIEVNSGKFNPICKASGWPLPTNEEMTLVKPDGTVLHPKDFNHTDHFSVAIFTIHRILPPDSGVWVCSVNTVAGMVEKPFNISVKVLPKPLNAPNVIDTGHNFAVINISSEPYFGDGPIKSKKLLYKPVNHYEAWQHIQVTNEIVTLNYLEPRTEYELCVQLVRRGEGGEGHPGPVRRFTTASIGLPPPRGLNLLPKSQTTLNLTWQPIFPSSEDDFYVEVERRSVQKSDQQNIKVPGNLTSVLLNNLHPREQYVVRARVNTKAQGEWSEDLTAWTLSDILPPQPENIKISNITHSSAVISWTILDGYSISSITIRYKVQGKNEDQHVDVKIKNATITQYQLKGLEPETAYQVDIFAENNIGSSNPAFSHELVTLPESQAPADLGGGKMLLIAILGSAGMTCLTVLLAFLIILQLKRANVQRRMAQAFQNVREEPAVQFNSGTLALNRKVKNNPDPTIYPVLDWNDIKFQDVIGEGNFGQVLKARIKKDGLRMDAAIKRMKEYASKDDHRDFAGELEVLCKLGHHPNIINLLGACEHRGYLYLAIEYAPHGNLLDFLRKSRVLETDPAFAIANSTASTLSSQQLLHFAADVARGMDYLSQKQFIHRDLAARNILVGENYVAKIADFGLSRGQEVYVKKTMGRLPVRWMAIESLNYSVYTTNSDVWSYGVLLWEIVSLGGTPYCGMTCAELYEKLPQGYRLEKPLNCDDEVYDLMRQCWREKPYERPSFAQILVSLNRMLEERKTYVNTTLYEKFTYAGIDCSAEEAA
Experimental: as §1

[33] = molecular target: T23, c-RAF (Homo sapiens, UniProt P04049)
T23 construct: gene RAF1
Experimental: as §1

[34] = molecular target: T24, PRK2 (Homo sapiens, UniProt Q16513)
T24 construct: gene PKN2
Experimental: as §1

Q: Which results are given for `OCCn1cc(-c2cnc3nnn(Cc4ccc5ncccc5c4)c3n2)cn1` [METi, PF-04217903]?
A: inhibition at 1 µM [1]: -7%; inhibition at 1 µM [2]: -2%; inhibition at 1 µM [3]: -10%; inhibition at 1 µM [4]: 10%; inhibition at 1 µM [5]: 54%; inhibition at 1 µM [6]: -7%; inhibition at 1 µM [7]: -11%; inhibition at 1 µM [8]: 0%; inhibition at 1 µM [9]: 1%; inhibition at 1 µM [10]: -3%; inhibition at 1 µM [11]: -2%; inhibition at 1 µM [12]: 5%; inhibition at 1 µM [13]: 0%; inhibition at 1 µM [14]: 10%; inhibition at 1 µM [15]: 5%; inhibition at 1 µM [16]: -9%; inhibition at 1 µM [17]: -1%; inhibition at 1 µM [18]: 10%; inhibition at 1 µM [19]: -2%; inhibition at 1 µM [20]: 0%; inhibition at 1 µM [21]: 5%; inhibition at 1 µM [22]: 1%; inhibition at 1 µM [23]: -7%; inhibition at 1 µM [24]: -2%; inhibition at 1 µM [25]: -11%; inhibition at 1 µM [26]: 0%; inhibition at 1 µM [27]: -2%; inhibition at 1 µM [28]: 0%; inhibition at 1 µM [29]: -13%; inhibition at 1 µM [30]: -23%; inhibition at 1 µM [31]: -8%; inhibition at 1 µM [32]: -32%; inhibition at 1 µM [33]: -16%; inhibition at 1 µM [34]: -11%
